Experimental data published in patent US7119094B1, “Substituted polycyclic aryl and heteroarpyl pyrazinones useful for selective inhibition of the coagulation cascade” (Warner-Lambert Company, priority 2000, dated 2006).
Read-outs that look alike come from different tables or passages of the source.

Tests used:
[1] = target: T1, recombinant soluble tissue factor and recombinant human factor VIIa (TF-VIIa) (Homo sapiens, UniProt P08709); assay: TF-VIIa Assay; type: biochemical
T1 construct: conversion of coagulation factor VII to VIIa by Xa; purchased American Diagnostica, Greenwich Conn; host or cells: factor VIIa purchased; soluble TF made in house in E. coli

[2] = target: T2, Trypsin (type 1× from porcine pancreas) (Sus scrofa, UniProt P00761); assay: Trypsin Assay; type: biochemical
T2 construct: Trypsin (5 ug/ml; type 1× from porcine pancreas); purchased Sigma, St. Louis Mo; host or cells: porcine pancreas
T2 sequence (P00761 9-231): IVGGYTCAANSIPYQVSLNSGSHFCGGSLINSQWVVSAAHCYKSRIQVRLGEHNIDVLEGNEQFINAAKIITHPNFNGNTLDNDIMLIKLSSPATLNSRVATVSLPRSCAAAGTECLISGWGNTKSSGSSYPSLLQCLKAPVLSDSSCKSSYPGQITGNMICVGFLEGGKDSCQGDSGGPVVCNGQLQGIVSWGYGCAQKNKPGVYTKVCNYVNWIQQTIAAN

T1 sequence (P08709 213-466 limits assumed): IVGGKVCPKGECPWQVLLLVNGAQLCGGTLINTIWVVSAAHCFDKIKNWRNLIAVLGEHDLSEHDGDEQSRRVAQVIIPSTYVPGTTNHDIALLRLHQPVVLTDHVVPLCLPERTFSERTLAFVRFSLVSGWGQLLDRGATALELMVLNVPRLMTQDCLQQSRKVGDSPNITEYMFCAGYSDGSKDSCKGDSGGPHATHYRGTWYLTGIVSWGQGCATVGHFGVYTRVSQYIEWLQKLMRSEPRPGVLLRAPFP
T1 sequence (P08709 61-212 limits assumed): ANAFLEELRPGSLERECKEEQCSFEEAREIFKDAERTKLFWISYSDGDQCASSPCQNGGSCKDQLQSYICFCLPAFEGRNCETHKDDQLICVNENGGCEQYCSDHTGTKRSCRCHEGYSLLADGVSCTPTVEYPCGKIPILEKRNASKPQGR
T1 sequence (P13726 33-251 partner limits assumed): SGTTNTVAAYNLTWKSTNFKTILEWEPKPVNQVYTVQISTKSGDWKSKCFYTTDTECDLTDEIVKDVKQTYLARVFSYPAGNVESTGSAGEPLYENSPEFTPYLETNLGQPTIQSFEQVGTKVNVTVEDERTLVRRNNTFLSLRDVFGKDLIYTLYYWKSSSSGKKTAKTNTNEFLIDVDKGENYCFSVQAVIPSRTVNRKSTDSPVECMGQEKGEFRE

SMILES | % Inhibition TF-VIIa (100 νM) ([1]; inhibitor at 100 νM) [%] | % Inhibition Trpysin II (100 νM) ([2]; inhibitor at 100 νM) [%] | % Inhibition TF-VIIa (100 νM) [1] [%] | % Inhibition Trpysin II (100 νM) [2] [%]
Cc1c(Cl)nc(NCCc2ccccc2)c(=O)n1CC(=O)NCCc1ccncc1 [Example E-0002] | 0 | 0 | – | –
O=C(Cn1c(-c2ccccc2)c(Cl)nc(NCCc2cccc(Cl)c2)c1=O)NCCc1ccncc1 [Example E-0011] | 0 | 0 | – | –
O=C(Cn1c(Cc2ccccc2)c(Cl)nc(NCCc2cccnc2)c1=O)NCCc1ccncc1 [Example E-0061] | 0 | 0 | – | –
COc1ccc(-c2c(Cl)nc(NCCc3cccnc3)c(=O)n2CC(=O)NCCc2ccncc2)cc1 [Example E-0037] | 0 | 2 | – | –
O=C(Cn1c(-c2ccc(Cl)cc2)c(Cl)nc(NCCN2CCOCC2)c1=O)NCCc1ccncc1 [Example E-0023] | 0 | 1 | – | –
Cc1c(Cl)nc(NCc2ccccc2)c(=O)n1CC(=O)NCCc1ccncc1 [Example E-0001] | 0 | 0 | – | –
COc1ccc(-c2c(Cl)nc(NCCc3cccc(Cl)c3)c(=O)n2CC(=O)NCCc2cccnc2)cc1 [Example E-0104] | 3 | 9 | – | –
COc1ccc(-c2c(Cl)nc(NCCc3ccccc3)c(=O)n2CC(=O)NCCc2ccncc2)cc1 [Example E-0034] | 0 | 3 | – | –
O=C(Cn1c(-c2cccc(Cl)c2)c(Cl)nc(NCCc2ccccc2)c1=O)NCCc1cccnc1 [Example E-0089] | 3 | 8 | – | –
COc1ccc(-c2c(Cl)nc(NCc3ccncc3)c(=O)n2CC(=O)NCCc2ccncc2)cc1 [Example E-0040] | 0 | 4 | – | –
O=C(Cn1c(-c2ccc3c(c2)OCO3)c(Cl)nc(NCCc2ccncc2)c1=O)NCCc1ccncc1 [Example E-0046] | 0 | 4 | – | –
O=C(Cn1c(CCc2ccccc2)c(Cl)nc(NCCN2CCOCC2)c1=O)NCCc1ccncc1 [Example E-0071] | 0 | 0 | – | –
COc1ccc(-c2c(Cl)nc(NCCc3cccc(Cl)c3)c(=O)n2CC(=O)NCCc2ccncc2)cc1 [Example E-0103] | 2 | 11 | – | –
O=C(Cn1c(-c2ccc3c(c2)OCO3)c(Cl)nc(NCc2ccncc2)c1=O)NCCc1ccncc1 [Example E-0048] | 0 | 0 | – | –
O=C(Cn1c(-c2ccc(Cl)cc2)c(Cl)nc(NCc2ccccc2)c1=O)NCCc1ccncc1 [Example E-0017] | 0 | 1 | – | –
O=C(Cn1c(-c2cccc(Cl)c2)c(Cl)nc(NCCc2ccccc2)c1=O)NCCc1ccncc1 [Example E-0076] | 0 | 10 | – | –
O=C(Cn1c(-c2ccc(-c3ccccc3)cc2)c(Cl)nc(NCCc2ccccc2)c1=O)NCCc1ccncc1 [Example E-0112] | – | – | 11 | 13
O=C(Cn1c(CCc2ccccc2)c(Cl)nc(NCCc2cccnc2)c1=O)NCCc1ccncc1 [Example E-0069] | 0 | 0 | – | –
O=C(Cn1c(-c2ccc(Cl)cc2)c(Cl)nc(NCCc2cccc(Cl)c2)c1=O)NCCc1ccncc1 [Example E-0019] | 0 | 2 | – | –
O=C(Cn1c(-c2ccc(Cl)cc2)c(Cl)nc(NCc2ccncc2)c1=O)NCCc1ccncc1 [Example E-0024] | 0 | 1 | – | –
Cc1c(Cl)nc(NCCc2ccc(Cl)cc2)c(=O)n1CC(=O)NCCc1ccncc1 [Example E-0004] | 0 | 0 | – | –
O=C(Cn1c(-c2cccc(Cl)c2)c(Cl)nc(NCCc2ccc(Cl)cc2)c1=O)NCCc1cccnc1 [Example E-0095] | 2 | 9 | – | –
O=C(Cn1c(-c2cccc(Cl)c2)c(Cl)nc(NCCc2cccc(Cl)c2)c1=O)NCCc1ccncc1 [Example E-0091] | 1 | 8 | – | –
COc1ccc(-c2c(Cl)nc(NCCc3cccc(Cl)c3)c(=O)n2CC(=O)NCCc2ccncc2)cc1 [Example E-0035] | 4 | 2 | – | –
O=C(Cn1c(-c2cccc(Cl)c2)c(Cl)nc(NCCc2ccc(Cl)cc2)c1=O)NCCc1ccncc1 [Example E-0082] | 4 | 3 | – | –
O=C(Cn1c(-c2ccc3c(c2)OCO3)c(Cl)nc(NCCc2ccccc2)c1=O)NCCc1ccncc1 [Example E-0042] | 0 | 5 | – | –

SMILES | % Inhibition TF-VIIa (100 νM) ([1]; inhibitor at 100 νM) [%] | % Inhibition Trpysin II (100 νM) ([2]; inhibitor at 100 νM) [%] | % Inhibition TF-VIIa (100 νM) [1] [%] | % Inhibition Trpysin II (100 νM) [2] [%]
O=C(Cn1c(-c2ccc(-c3ccccc3)cc2)c(Cl)nc(NCCc2ccc(Cl)cc2)c1=O)NCCc1ccncc1 [Example E-0118] | – | – | 12 | 9
O=C(Cn1c(Cc2ccccc2)c(Cl)nc(NCCc2ccc(Cl)cc2)c1=O)NCCc1ccncc1 [Example E-0060] | 0 | 0 | – | –
O=C(Cn1c(-c2cccc(Cl)c2)c(Cl)nc(NCc2ccccc2)c1=O)NCCc1ccncc1 [Example E-0073] | 0 | 6 | – | –
O=C(Cn1c(-c2ccc(-c3ccccc3)cc2)c(Cl)nc(NCCc2ccccc2)c1=O)NCCc1ccncc1 [Example E-0050] | – | – | 0 | 0
O=C(Cn1c(CCc2ccccc2)c(Cl)nc(NCCc2cccc(Cl)c2)c1=O)NCCc1ccncc1 [Example E-0067] | 0 | 0 | – | –
O=C(Cn1c(Cc2ccccc2)c(Cl)nc(NCc2ccccc2)c1=O)NCCc1ccncc1 [Example E-0057] | 0 | 0 | – | –
Cc1c(Cl)nc(NCCN2CCOCC2)c(=O)n1CC(=O)NCCc1ccncc1 [Example E-0007] | 0 | 0 | – | –
O=C(Cn1c(-c2ccc(Cl)cc2)c(Cl)nc(NCCc2ccncc2)c1=O)NCCc1ccncc1 [Example E-0030] | 0 | 4 | – | –
O=C(Cn1c(CCc2ccccc2)c(Cl)nc(NCCc2ccccc2)c1=O)NCCc1ccncc1 [Example E-0066] | 0 | 0 | – | –
Cc1c(Cl)nc(NCCc2ccncc2)c(=O)n1CC(=O)NCCc1ccncc1 [Example E-0006] | 2 | 1 | – | –
O=C(Cn1c(Cc2ccccc2)c(Cl)nc(NCCc2ccccc2)c1=O)NCCc1ccncc1 [Example E-0058] | 0 | 0 | – | –
O=C(Cn1c(-c2cccc(Cl)c2)c(Cl)nc(NCCc2ccc(Cl)cc2)c1=O)NCCc1ccncc1 [Example E-0094] | 2 | 7 | – | –
Cc1c(Cl)nc(NCCc2cccnc2)c(=O)n1CC(=O)NCCc1ccncc1 [Example E-0005] | 0 | 0 | – | –
O=C(Cn1c(-c2ccc(Cl)cc2)c(Cl)nc(NCCc2ccncc2)c1=O)NCCc1ccncc1 [Example E-0022] | 0 | 2 | – | –
O=C(Cn1c(-c2ccc3c(c2)OCO3)c(Cl)nc(NCc2ccccc2)c1=O)NCCc1ccncc1 [Example E-0041] | 0 | 2 | – | –
O=C(Cn1c(-c2ccc(Cl)cc2)c(Cl)nc(NCCc2ccc(Cl)cc2)c1=O)NCCc1ccncc1 [Example E-0028] | 0 | 3 | – | –
O=C(Cn1c(-c2cccc(Cl)c2)c(Cl)nc(NCCc2cccc(Cl)c2)c1=O)NCCc1ccncc1 [Example E-0079] | 0 | 11 | – | –
O=C(Cn1c(-c2ccccc2)c(Cl)nc(NCCc2ccncc2)c1=O)NCCc1ccncc1 [Example E-0014] | 0 | 0 | – | –
Cc1c(Cl)nc(NCCc2cccc(Cl)c2)c(=O)n1CC(=O)NCCc1ccncc1 [Example E-0003] | 0 | 0 | – | –
O=C(Cn1c(-c2ccc(Cl)cc2)c(Cl)nc(NCCc2ccc(Cl)cc2)c1=O)NCCc1ccncc1 [Example E-0020] | 0 | 4 | – | –
O=C(Cn1c(CCc2ccccc2)c(Cl)nc(NCc2ccccc2)c1=O)NCCc1ccncc1 [Example E-0065] | 0 | 0 | – | –
Cc1c(Cl)nc(NCc2ccncc2)c(=O)n1CC(=O)NCCc1ccncc1 [Example E-0008] | 0 | 0 | – | –
O=C(Cn1c(-c2ccccc2)c(Cl)nc(NCCc2ccccc2)c1=O)NCCc1ccncc1 [Example E-0010] | 0 | 0 | – | –
O=C(Cn1c(-c2ccc(Cl)cc2)c(Cl)nc(NCCc2ccccc2)c1=O)NCCc1ccncc1 [Example E-0018] | 1 | 4 | – | –
O=C(Cn1c(-c2ccc3c(c2)OCO3)c(Cl)nc(NCCc2ccc(Cl)cc2)c1=O)NCCc1ccncc1 [Example E-0044] | 0 | 3 | – | –
O=C(Cn1c(-c2ccc(-c3ccccc3)cc2)c(Cl)nc(NCc2ccccc2)c1=O)NCCc1ccncc1 [Example E-0109] | – | – | 2 | 12
